Data: US12187742B2 (XRAD Therapeutics, Inc., priority 2018, dated 2025)
Where a name gives a salt, the structure may show the parent alone.

What was measured:
DNA-PK = DNA-PK (Homo sapiens (Human), UniProt P78527); experiment: DNA-PK Enzyme-Linked Immunosorbent Assay (phosphorylation of GST-p53 (1-101) peptide); type: biochemical; conditions: ELISA
Method in brief: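 ELISA with plate-bound GST-p53 (1-101) phosphorylated by DNA-PK (0.1 μg/mL final) with 20 μM ATP for 1 h at 25 °C. Compounds tested over 10 3-fold doses from 100 nM top final. Phospho-p53 Ser15 detected by antibody, HRP and TMB, absorbance at 450 nm.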

ATM = ATM (Homo sapiens (Human), UniProt Q13315); experiment: ATM in Cell Western Assay (pKAP1 in etoposide-treated MCF-7 cells); type: cell-based
Method in brief: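 Cells received compounds in a 10-dose, 3-fold series from a 1 μM final top concentration, then 100 μM etoposide, for 1 hr at 37° C. They were then fixed with paraformaldehyde and permeabilized with 0.1% Triton X-100. After immunostaining, plates were scanned on an infrared imager.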

[1] = MCF-7 cells, etoposide 100 μM, 1 hr, pKAP1 readout

ATM, sequence (Q13315 whole entry): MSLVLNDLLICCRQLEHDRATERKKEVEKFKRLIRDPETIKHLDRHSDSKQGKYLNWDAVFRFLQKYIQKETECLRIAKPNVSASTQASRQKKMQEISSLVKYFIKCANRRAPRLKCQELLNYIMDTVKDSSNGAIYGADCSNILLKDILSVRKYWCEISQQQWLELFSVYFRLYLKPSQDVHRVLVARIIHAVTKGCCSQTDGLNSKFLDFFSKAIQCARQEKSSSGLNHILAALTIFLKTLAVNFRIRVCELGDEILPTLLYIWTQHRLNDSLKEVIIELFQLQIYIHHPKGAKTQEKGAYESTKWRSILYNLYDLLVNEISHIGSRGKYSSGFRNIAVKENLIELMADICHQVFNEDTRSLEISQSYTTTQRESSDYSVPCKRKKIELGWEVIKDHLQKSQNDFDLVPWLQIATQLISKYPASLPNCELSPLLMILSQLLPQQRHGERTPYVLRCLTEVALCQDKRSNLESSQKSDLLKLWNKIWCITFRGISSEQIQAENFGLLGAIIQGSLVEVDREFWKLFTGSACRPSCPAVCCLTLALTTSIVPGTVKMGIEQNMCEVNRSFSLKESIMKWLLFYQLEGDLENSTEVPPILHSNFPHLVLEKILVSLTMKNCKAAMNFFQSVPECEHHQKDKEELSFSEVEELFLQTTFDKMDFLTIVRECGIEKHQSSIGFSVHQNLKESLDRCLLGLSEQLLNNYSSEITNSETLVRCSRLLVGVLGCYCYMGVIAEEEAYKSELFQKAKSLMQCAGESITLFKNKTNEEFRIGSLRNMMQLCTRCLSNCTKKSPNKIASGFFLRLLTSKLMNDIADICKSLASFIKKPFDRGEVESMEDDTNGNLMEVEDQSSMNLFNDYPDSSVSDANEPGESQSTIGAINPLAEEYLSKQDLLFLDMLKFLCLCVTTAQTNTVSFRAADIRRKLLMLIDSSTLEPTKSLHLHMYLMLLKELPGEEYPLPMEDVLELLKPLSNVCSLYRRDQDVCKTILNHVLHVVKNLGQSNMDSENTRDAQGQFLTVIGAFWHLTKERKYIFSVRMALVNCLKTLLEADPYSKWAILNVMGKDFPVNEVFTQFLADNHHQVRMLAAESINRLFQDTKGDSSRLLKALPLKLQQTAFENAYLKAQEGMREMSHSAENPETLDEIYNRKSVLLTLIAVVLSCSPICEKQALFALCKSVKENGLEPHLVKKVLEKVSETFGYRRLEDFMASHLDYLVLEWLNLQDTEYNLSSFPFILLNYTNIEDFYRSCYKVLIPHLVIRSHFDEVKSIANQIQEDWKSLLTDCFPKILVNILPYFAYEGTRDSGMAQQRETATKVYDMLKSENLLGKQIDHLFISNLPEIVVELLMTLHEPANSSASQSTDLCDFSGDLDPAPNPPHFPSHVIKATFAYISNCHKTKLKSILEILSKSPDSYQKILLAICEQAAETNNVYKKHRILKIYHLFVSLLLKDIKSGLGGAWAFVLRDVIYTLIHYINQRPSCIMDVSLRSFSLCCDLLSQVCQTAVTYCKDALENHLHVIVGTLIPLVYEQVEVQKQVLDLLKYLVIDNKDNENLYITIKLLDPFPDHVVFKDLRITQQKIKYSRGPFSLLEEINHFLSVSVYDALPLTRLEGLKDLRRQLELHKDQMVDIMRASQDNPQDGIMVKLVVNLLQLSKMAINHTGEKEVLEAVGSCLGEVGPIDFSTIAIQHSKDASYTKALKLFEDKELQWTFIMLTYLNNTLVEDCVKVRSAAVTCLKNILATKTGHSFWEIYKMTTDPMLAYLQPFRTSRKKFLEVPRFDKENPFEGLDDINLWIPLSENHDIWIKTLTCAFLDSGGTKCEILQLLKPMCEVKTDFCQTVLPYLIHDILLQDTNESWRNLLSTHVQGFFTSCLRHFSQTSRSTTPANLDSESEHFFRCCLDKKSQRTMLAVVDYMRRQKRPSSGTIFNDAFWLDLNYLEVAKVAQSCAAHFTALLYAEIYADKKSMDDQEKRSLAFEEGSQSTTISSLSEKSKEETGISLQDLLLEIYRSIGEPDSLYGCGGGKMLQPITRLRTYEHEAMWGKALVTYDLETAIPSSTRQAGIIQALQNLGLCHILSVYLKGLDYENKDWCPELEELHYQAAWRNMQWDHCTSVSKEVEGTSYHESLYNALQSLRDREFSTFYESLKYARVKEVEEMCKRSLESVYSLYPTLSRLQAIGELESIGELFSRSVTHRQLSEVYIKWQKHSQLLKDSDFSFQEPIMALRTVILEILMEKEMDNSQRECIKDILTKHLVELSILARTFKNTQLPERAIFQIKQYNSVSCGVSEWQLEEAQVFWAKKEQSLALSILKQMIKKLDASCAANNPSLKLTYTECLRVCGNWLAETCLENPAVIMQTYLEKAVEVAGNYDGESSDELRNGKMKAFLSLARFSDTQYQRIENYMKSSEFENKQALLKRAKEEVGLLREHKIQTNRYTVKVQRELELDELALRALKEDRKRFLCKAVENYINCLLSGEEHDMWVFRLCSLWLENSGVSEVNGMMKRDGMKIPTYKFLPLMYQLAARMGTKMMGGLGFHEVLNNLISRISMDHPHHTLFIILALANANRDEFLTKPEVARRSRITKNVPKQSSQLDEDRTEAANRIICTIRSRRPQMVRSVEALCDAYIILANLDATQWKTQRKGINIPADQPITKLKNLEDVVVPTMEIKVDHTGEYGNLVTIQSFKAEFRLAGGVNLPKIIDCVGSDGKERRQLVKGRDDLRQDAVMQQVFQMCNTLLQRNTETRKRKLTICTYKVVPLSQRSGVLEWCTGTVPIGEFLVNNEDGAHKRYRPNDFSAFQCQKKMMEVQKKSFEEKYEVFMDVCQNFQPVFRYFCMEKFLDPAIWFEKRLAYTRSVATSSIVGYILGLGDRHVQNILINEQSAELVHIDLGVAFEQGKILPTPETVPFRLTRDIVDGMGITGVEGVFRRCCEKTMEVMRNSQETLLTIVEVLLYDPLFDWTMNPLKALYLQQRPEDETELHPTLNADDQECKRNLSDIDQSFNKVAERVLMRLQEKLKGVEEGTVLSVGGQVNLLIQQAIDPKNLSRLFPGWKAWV

Row | Structure (SMILES) | IC50 (DNA-PK; 20 μM ATP) [nM] | IC50 (ATM; pKAP1 in etoposide-treated MCF-7 cells) [nM] | IC50 (DNA-PK; ATP 20 μM) [nM] | IC50 (ATM; [1]) [nM]
1 | CC(C)NCCOc1ncc(-c2cc3c(cc2F)ncc2c3[C@]3(C[C@H](c4ccc(Cl)cc4)C3)C(=O)N2C)cc1NS(C)(=O)=O [Example 416, cis-N-(5-(3-(4-Chlorophenyl)-7′-fluoro-3′-methyl-2′-oxo-2′,3′-dihydrospiro[cyclobutane-1,1′-pyrrolo[2,3-c]quinolin]-8′-yl)-2-(2-(isopropylamino)ethoxy)pyridin-3-yl)methanesulfonamide] | 1 to 100 | 1 to 100 | – | –
2 | Cc1ccc(S(=O)(=O)Nc2cc(-c3cc4c5c(cnc4cc3F)N(C)C(=O)C53CCC3)cnc2N2CC(N(C)C)C2)cc1 [Example 323, N-(2-(3-(Dimethylamino)azetidin-1-yl)-5-(7′-fluoro-3′-methyl-2′-oxo-2′,3′-dihydrospiro[cyclobutane-1,1′-pyrrolo[2,3-c]quinolin]-8′-yl)pyridin-3-yl)-4-methylbenzenesulfonamide hydrochloride] | – | – | 1 to 100 | 1 to 100
3 | CN(C)CCCOc1ncc(-c2cc3c4c(cnc3cc2F)N(C)C(=O)C42CCC2)cc1NS(C)(=O)=O [Example 291, N-(2-(3-(Dimethylamino)propoxy)-5-(7′-fluoro-3′-methyl-2′-oxo-2′,3′-dihydrospiro [cyclobutane-1,1′-pyrrolo[2,3-c]quinolin]-8′-yl)pyridin-3-yl)methanesulfonamide hydrochloride] | – | – | 1 to 100 | 1 to 100
4 | CN(C)CCCOc1ncc(-c2ccc3c(c2)c2c(c[n+]3[O-])N(C)C(=O)C23CC3)cc1NS(=O)(=O)c1ccccc1 [Example 123, 8′-(6-(3-(Dimethylamino)propoxy)-5-(phenylsulfonamido)pyridin-3-yl)-3′-methyl-2′-oxo-2′,3′-dihydrospiro[cyclopropane-1,1′-pyrrolo[2,3-c]quinoline]5′-oxide] | – | – | 1 to 100 | 1 to 100
5 | CN(C)CCCOc1ncc(-c2ccc3ncc4c(c3c2)C2(CC2)C(=O)N4C)cc1NS(=O)(=O)c1ccc(F)cc1 [Example 88, N-(2-(3-(Dimethylamino)propoxy)-5-(3′-methyl-2′-oxo-2′,3′-dihydrospiro [cyclopropane-1,1′-pyrrolo[2,3-c]quinolin]-8′-yl)pyridin-3-yl)-4-fluorobenzenesulfonamide] | – | – | < 0.5 | 0.5 to 1

Next, values leading:

Row | IC50 (DNA-PK; 20 μM ATP) [nM] | IC50 (ATM; pKAP1 in etoposide-treated MCF-7 cells) [nM] | IC50 (DNA-PK; ATP 20 μM) [nM] | IC50 (ATM; [1]) [nM] | Structure (SMILES)
6 | – | – | 1 to 100 | 1 to 100 | CCN(C)S(=O)(=O)Nc1cc(-c2ccc3ncc4c(c3c2)C2(CCC2)C(=O)N4C)cnc1N1CCC(N2CCCCC2)CC1 [Example 212, 8′-(6-{[1,4′-Bipiperidine]-1′-yl}-5-[(ethyl(methyl)sulfamoyl)amino}pyridin-3-yl)-3′-methyl-2′,3′-dihydrospiro[cyclobutane-1,1′-pyrrolo[2,3-c]quinoline]-2′-one]
7 | – | – | 1 to 100 | 1 to 100 | CN(C)CCCOc1ncc(-c2ccc3ncc4c(c3c2)C2(CC2)C(=O)N4C)cc1NS(=O)(=O)Cc1ccccc1 [Example 103, N-(2-(3-(Dimethylamino)propoxy)-5-(3′-methyl-2′-oxo-2′,3′-dihydrospiro [cyclopropane-1,1′-pyrrolo[2,3-c]quinolin]-8′-yl)pyridin-3-yl)-1-phenylmethanesulfonamide]
8 | – | – | < 0.5 | 0.5 to 1 | CN1C(=O)C2(CCC2)c2c1cnc1ccc(-c3cnc(OCCCN4CCCCC4)c(NS(=O)(=O)N4CCNCC4)c3)cc21 [Example 202, N-(5-(3′-Methyl-2′-oxo-2′,3′-dihydrospiro[cyclobutane-1,1′-pyrrolo[2,3-c]quinolin]-8′-yl)-2-(3-(piperidin-1-yl)propoxy)pyridin-3-yl)piperazine-1-sulfonamide]
9 | – | – | 1 to 100 | 1 to 100 | Cc1ccc(S(=O)(=O)n2c(CCN3CCCCC3)cc3ncc(-c4ccc5ncc6c(c5c4)C4(CCC4)C(=O)N6C)cc32)cn1 [Example 216, 3′-Metbyl-8′-(1-((6-methylpyridin-3-yl)sulfonyl)-2-(2-(piperidin-1-yl)ethyl)-1H-pyrrolo[3,2-b]pyridin-6-yl)spiro[cyclobutane-1,1′-pyrrolo[2,3-c]quinolin]-2′(3′-H)-one]
